Publication PMC8691200 (Journal of Chemical Information and Modeling, 2021)
“Also recorded” adds a separate entry of the source.

Legend:
SARS-CoV-2 [1] = conditions: Vero E6 cells; cited from earlier work
SARS-CoV-2 [2] = conditions: Vero E6 cells, real-time polymerase chain reaction; cited from earlier work
[3] = system: SARS-CoV-2 MEX-BC2/2020 strain; format: cell-based

## COc1ccc2cc1Oc1ccc(cc1)C[C@H]1c3c(cc4c(c3Oc3cc5c(cc3OC)CCN(C)[C@@H]5C2)OCO4)CCN1C [Cepharanthine]
SARS-CoV-2 [1]
  CPE (% efficacy): 92%

## CCOC(=O)c1c(CSc2ccccc2)n(C)c2cc(Br)c(O)c(CN(C)C)c12 [Compound 1, Arbidol]
Vero E6 cells
  cytotoxicity in viability assays: dose-dependent trend of cytotoxicity
Vero E6 cells; African green monkey
  safety ratio: 2.3
25 μM, 96 h incubation with infected cells
  compound precipitation or recrystallization in micrographs: no observed compound precipitation or recrystallization
Solubilized in DMSO or buffer (for salts)
  aqueous solubility: good aqueous solubility
SARS-CoV-2 [2]
  maximum inhibition of virus entry: 70%

## N#C[C@@]1(c2ccc3c(N)ncnn23)O[C@H](CO)[C@@H](O)[C@H]1O [GS-441524]
[3]
  maximum % inhibition observed: 100%
  prevention of virus-induced CPE: prevented completely the virus-induced CPE; also recorded: completely prevented the virus-induced CPE

## C=C[C@@]1(C)CC(=O)[C@]2(O)[C@@]3(C)[C@@H](O)CCC(C)(C)[C@@H]3[C@H](OC(=O)CCN(C)C)[C@H](OC(C)=O)[C@@]2(C)O1.Cl [NKH477]
SARS-CoV-2 [1]
  CPE (% efficacy): 45%

## CC1=C[C@]23C(=O)[C@@H](C=C(CO)[C@@H](O)[C@]2(O)[C@H]1O)[C@H]1[C@@H](C[C@H]3C)C1(C)C [ingenol]
SARS-CoV-2 [1]
  CPE (% efficacy): 38.2%

## CC(CN(C)C)CN1c2ccccc2CCc2ccccc21 (centres unmarked) [trimipramine]
SARS-CoV-2 [1]
  CPE (% efficacy): 48%
